Test results taken from US8686113B2 (priority 2009, dated 2014).
Read-outs that look alike come from different tables or passages of the source. No end group written: not given here.

Legend:
[1] = system: E. coli BL21 A1; assay type: cell-based, Escherichia coli
How it was run: (§1)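 Broth microdilution in 1% TSB with twofold peptide series, final 128 μg/mL to 62.5 ng/mL, against 5×10^6 bacteria/mL stock suspension added 1:1. Incubated 20 h at 37 °C, growth read by absorbance at 595 nm; MIC is the lowest concentration with no growth, determined in triplicate.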

[2] = system: M. luteus 10240; assay: Growth inhibition assay (microdilution MIC); assay type: cell-based, Micrococcus luteus; details: 10240, 20 h
How it was run: as §1

[3] = system: E. coli ATCC BAA-457; details: ¼ Muller-Hinton medium
Experimental: (§2) The minimum inhibitory concentrations (MIC) of the antimicrobial peptides and peptide derivatives were determined in microdilution assays. These used a continuous peptide dilution in sterile flat-bottomed 96-well microtiter plates (polystyrene, Greiner Bio-One GmbH, Frickenhausen, Germany) and a total volume of 100 μL per well. The aqueous peptide or peptidomimetic solutions were diluted with 1% TSB water, to obtain a final concentration of 256 μg/mL. 50 μL of the peptide or peptidomimetic solution was pipetted into the first well of each series and stirred. From this solution, 50 μL was transferred to the second well, stirred and again 50 μL was transferred to the next well, and so on. A double dilution series is obtained, beginning at 256 μg/mL in the first well to 125 ng/mL in the twelfth well. The bacteria, e.g. E. coli BL21 A1, were cultured overnight at 37° C. in nutrient broth (NB, Carl Roth GmbH+Co. KG, Karlsruhe, Germany). 50 μL of a 5×10^6 bacteria/mL suspension in 1% TSB was added to each well of the microtiter plate and thus a final concentration of the peptides or peptidomimetics from 128 μg/mL (well 1) to 62.5 ng/mL (well 12) was established in each series. The plates were incubated at 37° C. for 20 h and then the absorption was measured at 595 nm with a TECAN microtiter plate spectrophotometer (Tecan Trading AG, Mannedorf, Switzerland). The MIC values of all peptides and peptidomimetics were determined in triplicate. Sterile water was used as negative control.
(§3) The tests were in this case carried out in Mueller-Hinton medium (¼ concentrated), which is equivalent to 1% TSB.

[4] = system: K. pneumoniae K6 ATCC 700603
Experimental: as §2, §3

[5] = system: E. coli D31 J. Wilson; details: ¼ Muller-Hinton medium
Experimental: as §2, §3

[6] = system: K. pneumoniae ATCC 27799
Experimental: as §2, §3

[7] = system: E. coli 045-849 SENTRY; details: 045-849 SENTRY
Experimental: as §2, §3

[8] = system: K. pneumoniae 012-3131
Experimental: as §2, §3

[9] = mouse, serum, Half-life in 25% mouse serum, 25% aqueous mouse serum, 37° C., 75 μg/mL peptide

H-VDKPPYLPRPKPPRRIYNNR-OH [compound 5]
MIC E. coli BL21 A1 ([1]; BL21, 20 h): 16 µg/mL | MIC M. luteus 10240 [2]: 16 µg/mL | MIC E. coli SEQ 102ATCC # BAA-4 57 [3]: 128 µg/mL | MIC K. pneumoniae K6 ATCC 700603 ([4]; ¼ Muller-Hinton medium): 128 µg/mL | MIC E. coli D31 J. Wilson [5]: 64 µg/mL | MIC K. pneumoniae ATCC 27799 ([6]; ¼ Muller-Hinton medium): 128 µg/mL | MIC E. coli 045-849 SENTRY [7]: 16 µg/mL | MIC K. pneumoniae 012-3131 [8]: 64 µg/mL

H-VDKPPYLPRPRPPRPIYNR-OH [compound 20]
MIC E. coli BL21 A1 ([1]; BL21, 20 h): 8 µg/mL | MIC M. luteus 10240 [2]: 16 µg/mL | MIC E. coli SEQ 102ATCC # BAA-4 57 [3]: 32 µg/mL | MIC K. pneumoniae K6 ATCC 700603 ([4]; ATCC 700603): 128 µg/mL | MIC E. coli D31 J. Wilson [5]: 4 µg/mL | MIC K. pneumoniae ATCC 27799 ([6]; ATCC 27799): 64 µg/mL | MIC E. coli 045-849 SENTRY [7]: 8 µg/mL | MIC K. pneumoniae 012-3131 [8]: 64 µg/mL

H-VDKPPYLPRPRPPRRIYN-OH [SEQ ID NO. 28]
half-life [9]: 2 h | MIC E. coli BL21 A1 ([1]; 1% TSB, 20 h at 37° C.): 64 µg/mL

H-VDKPPYLPRPRPPRRIYNN-NH2 [compound 51]
half-life [9]: 2 h | MIC E. coli BL21 A1 ([1]; BL21, 20 h): 16 µg/mL | MIC M. luteus 10240 [2]: 64 µg/mL

H-VDKPPYLPRPRPPRRIYNRN-NH2 [compound 17]
half-life [9]: 0.75 h | MIC E. coli BL21 A1 ([1]; BL21, 20 h): 16 µg/mL | MIC M. luteus 10240 [2]: 128 µg/mL

H-VDKPPYLPRPRPPRRIYNRN-OH [compound 16]
MIC E. coli BL21 A1 ([1]; BL21, 20 h): 8 µg/mL | MIC M. luteus 10240 [2]: 16 µg/mL | MIC E. coli SEQ 102ATCC # BAA-4 57 [3]: 32 µg/mL | MIC K. pneumoniae K6 ATCC 700603 ([4]; ATCC 700603): 64 µg/mL | MIC E. coli D31 J. Wilson [5]: 32 µg/mL | MIC K. pneumoniae ATCC 27799 ([6]; ATCC 27799): 128 µg/mL | MIC E. coli 045-849 SENTRY [7]: 4 µg/mL | MIC K. pneumoniae 012-3131 [8]: 32 µg/mL

VDKPPYLPRPRPPRPIYNR-NH2 [SEQ ID NO. 60]
half-life [9]: 2 h

VDKPPYLPRPRPPRRIYNNR-OH [SEQ ID NO. 14]
half-life [9]: < 0.5 h

VDKPPYLPRPRPPRRIYNR-OH [SEQ ID NO. 19]
half-life [9]: < 0.5 h
